How the values were obtained:
[1] = tested on: Sindbis virus; type: cell-based
[2] = tested on: Vesicular Stomatitis Virus; type: cell-based
[3] = tested on: West Nile virus; type: cell-based
[4] = tested on: Sindbis virus; type: cell-based; remark: listed apart in the source
[5] = tested on: hNRAMP2; experiment: NRAMP2 expression (RT-PCR) in U2OS cells with iron; type: cell-based, human
Protocol: Cells were treated with 160 μM Ammonium Iron(III) Citrate for three days prior to and throughout the infection.
Total RNA was purified using Trizol and used for reverse transcription with random priming and MLV-RT (Invitrogen) followed by PCR using the indicated primers.

[6] = tested on: Ross River virus; type: cell-based; details: iron treatment (not shown)
[7] = tested on: Venezuelan Equine Encephalitis virus (VEE); type: cell-based
[8] = biological target: Sindbis virus / NRAMP2 (Homo sapiens, UniProt P49281); type: cell-based
[9] = biological target: human Natural Resistance-Associated Macrophage Protein 2 (hNRAMP2) (human) (UniProt P49281); experiment: cell-based or functional assay
Chain of human Natural Resistance-Associated Macrophage Protein 2 (hNRAMP2) (human) (P49281 whole entry): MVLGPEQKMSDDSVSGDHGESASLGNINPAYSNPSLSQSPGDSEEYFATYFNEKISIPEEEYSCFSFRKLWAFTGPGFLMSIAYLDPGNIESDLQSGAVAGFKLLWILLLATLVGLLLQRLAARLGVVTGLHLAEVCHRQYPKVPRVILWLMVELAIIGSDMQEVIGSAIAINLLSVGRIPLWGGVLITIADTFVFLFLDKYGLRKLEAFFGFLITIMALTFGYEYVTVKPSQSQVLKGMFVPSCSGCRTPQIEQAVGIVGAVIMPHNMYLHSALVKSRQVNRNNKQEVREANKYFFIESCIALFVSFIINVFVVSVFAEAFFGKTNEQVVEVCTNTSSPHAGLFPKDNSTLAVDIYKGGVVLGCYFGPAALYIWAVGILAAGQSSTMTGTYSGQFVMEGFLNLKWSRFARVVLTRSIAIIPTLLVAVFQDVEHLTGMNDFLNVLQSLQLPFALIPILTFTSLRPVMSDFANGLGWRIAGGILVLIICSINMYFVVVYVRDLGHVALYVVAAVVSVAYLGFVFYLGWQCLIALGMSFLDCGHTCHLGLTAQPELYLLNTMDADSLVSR

Chain of Sindbis virus / NRAMP2 (P49281 whole entry, looked up): as the sequence (P49281 whole entry) above

For `Cl.N` [ammonium chloride], the Sindbis infection [1] was “inhibited infection”.

With Ammonium Iron(III) Citrate the VSV infection [2] was “no effect”, the “West Nile virus infection” value [3] was “no effect” and the “reduction in virus binding to iron-treated cells compared to controls” value [4] was roughly 17 fold. The NRAMP2 expression ([5]; NRAMP2 over-expressing cells treated with iron (FIG. 7A)) was “decrease”, the NRAMP2 expression ([5]; U2OS cells, high iron (FIG. 7A)) was “decreased” and the “Ross River virus infection” value [6] was “insensitive”. The VEE infection [7] was “sensitive”, the “NRAMP2 co-precipitation with Sindbis virus” value [8] was “lost” and the “Sindbis virus binding (streptavidin precipitation, immunoblot)” value [8] was “attenuated”.

Work on “Sindbis virus (biotinylated infectious virus particles)” yielded a percentage of infected cells on NRAMP2 over-expression [9] of 2 fold.
